Tested on: subjects with moderately to severely active RA who have an inadequate response to methotrexate (MTX)
Assay: Study 1 (add-on to MTX) - Aspartate Aminotransferase (AST) levels
Type: in vivo, human
Conditions: 24 weeks results
Procedure: Double-blind, placebo-controlled add on study in subjects with moderately to severely active RA who have an inadequate response to methotrexate (MTX) (oral or parenteral).
595 subjects randomized to one of 6 dose regimens of Compound 1 (dosed as [Compound 1:HCl:3H2O]) (3 dose levels administered either once or twice daily) or placebo on top of each subject's stable dose of MTX.
Compound 1 (dosed as [Compound 1:HCl:3H2O]) is dosed for twelve weeks once daily (q.d.) (50 mg, 100 mg or 200 mg) or twice daily (b.i.d.) (25 mg, 50 mg or 100 mg); or placebo.
At Week 12, the subjects on placebo who have not achieved 20% improvement in swollen joint count (SJC66) and tender joint count (TJC68) are re-randomized automatically to receive Compound 1 (dosed as a [Compound 1:HCl:3H2O]) either at 100 mg q.d. or 50 mg b.i.d. doses in a blinded fashion; subjects on 50 mg q.d. who have not achieved 20% improvement in SJC66 and TJC68 will be assigned to 100 mg q.d. and subjects on 25 mg b.i.d. that have not achieved a 20% improvement in SJC66 and TJC68 will be assigned to 50 mg b.i.d. Subjects who switch treatment at week 12 are handled as if they discontinued at week 12 for the purpose of statistical analysis, whereas subjects in the other groups will maintain their randomized treatment until Week 24.
AST levels determination is available at Quest Diagnostics, Clinical Trials, Quest House, 125-135 Staines Road, Hounslow, Middlesex, TW3 3JB, United Kingdom under Catalogue n#84450. For Study 3, the data are obtained at BARC Europe, 3B,Industrie Park, Zwijnaarde, B-9052 Ghent, Belgium.
AST catalyzes the transamination of aspartate and 2-oxoglutarate, forming L-glutamate and oxalacetate. The oxalacetate is reduced to L-malate by malate dehydrogenase, whilst NADH is converted to NAD+, measured spectrophotometrically. Guidelines for the AST value have been issued by the association for Clinical Biochemistry and Laboratory Medicine, 130-132 Tooley Street LONDON SE1 2TU, united Kingdom, wherein the AST value should be below 34 U/l in Female and below 45 U/L in male. As disclosed in the respective study protocols for Study 1 or 2, at week 12, depending on the outcome of their treatment, the subjects may be continued in their initial treatment course, or reassigned to another treatment group in a randomized blinded fashion until week 24. Therefore, the number of subjects (N) for the period of either 12 weeks, or 24 weeks is provided to reflect this redistribution at week 12.

[1] = continued 100 mg b.i.d., week 1
[2] = continued 100 mg b.i.d., week 2
[3] = continued 100 mg b.i.d., week 4
[4] = continued 100 mg b.i.d., week 8
[5] = continued 100 mg b.i.d., week 12
[6] = continued 100 mg b.i.d., week 16
[7] = continued 100 mg b.i.d., week 20
[8] = continued 100 mg b.i.d., week 24
[9] = from 25 mg b.i.d. to 50 mg b.i.d. at 12 weeks, week 1
[10] = from 25 mg b.i.d. to 50 mg b.i.d. at 12 weeks, week 2
[11] = from 25 mg b.i.d. to 50 mg b.i.d. at 12 weeks, week 4
[12] = from 25 mg b.i.d. to 50 mg b.i.d. at 12 weeks, week 8
[13] = from 25 mg b.i.d. to 50 mg b.i.d. at 12 weeks, week 12
[14] = from 25 mg b.i.d. to 50 mg b.i.d. at 12 weeks, week 16
[15] = from 25 mg b.i.d. to 50 mg b.i.d. at 12 weeks, week 20
[16] = from 25 mg b.i.d. to 50 mg b.i.d. at 12 weeks, week 24
[17] = from 50 mg q.d. to 100 mg q.d. at 12 weeks, week 1
[18] = from 50 mg q.d. to 100 mg q.d. at 12 weeks, week 2
[19] = from 50 mg q.d. to 100 mg q.d. at 12 weeks, week 4
[20] = from 50 mg q.d. to 100 mg q.d. at 12 weeks, week 8
[21] = from 50 mg q.d. to 100 mg q.d. at 12 weeks, week 12
[22] = from 50 mg q.d. to 100 mg q.d. at 12 weeks, week 16
[23] = from 50 mg q.d. to 100 mg q.d. at 12 weeks, week 20
[24] = from 50 mg q.d. to 100 mg q.d. at 12 weeks, week 24
[25] = placebo switched to 50 mg b.i.d. at week 12, week 16
[26] = placebo switched to 50 mg b.i.d. at week 12, week 20
[27] = placebo switched to 50 mg b.i.d. at week 12, week 24
[28] = placebo switched to 100 mg q.d. at week 12, week 16
[29] = placebo switched to 100 mg q.d. at week 12, week 20
[30] = placebo switched to 100 mg q.d. at week 12, week 24

With `O=C(Nc1nc2cccc(-c3ccc(CN4CCS(=O)(=O)CC4)cc3)n2n1)C1CC1` [Compound 1, cyclopropanecarboxylic acid {5-[4-(1,1-dioxo-thiomorpholin-4-ylmethyl)-phenyl]-[1,2,4]triazolo[1,5-a]pyridin-2-yl}-amide] the “Study 1 - AST Mean CFB” value (continued 50 mg q.d., week 12) was 0.6 IU/L, the “Study 1 - AST Mean percentage CFB” value (continued 50 mg q.d., week 12) was 11.4% and the “Study 1 - AST Mean CFB” value (continued 50 mg q.d., week 16) was 1.4 IU/L. The “Study 1 - AST Mean percentage CFB” value (continued 50 mg q.d., week 16) was 15.1%, the “Study 1 - AST Mean CFB” value (continued 50 mg q.d., week 20) was 2.1 IU/L and the “Study 1 - AST Mean percentage CFB” value (continued 50 mg q.d., week 20) was 16.8%. For the same compound, the “Study 1 - AST Mean CFB” value (continued 50 mg q.d., week 24) was 1.0 IU/L, the “Study 1 - AST Mean percentage CFB” value (continued 50 mg q.d., week 24) was 12.9% and the “Study 1 - AST Mean CFB” value [1] was 1.4 IU/L. For the same compound, the “Study 1 - AST Mean percentage CFB” value [1] was 10.0%, the “Study 1 - AST Mean CFB” value [2] was 2.3 IU/L and the “Study 1 - AST Mean percentage CFB” value [2] was 14.1%. The “Study 1 - AST Mean CFB” value [3] was 2.6 IU/L, the “Study 1 - AST Mean percentage CFB” value [3] was 19.1% and the “Study 1 - AST Mean CFB” value [4] was 1.9 IU/L. For the same compound, the “Study 1 - AST Mean percentage CFB” value [4] was 17.4%, the “Study 1 - AST Mean CFB” value [5] was 2.5 IU/L and the “Study 1 - AST Mean percentage CFB” value [5] was 20.1%. The “Study 1 - AST Mean CFB” value [6] was 3.5 IU/L, the “Study 1 - AST Mean percentage CFB” value [6] was 25.2% and the “Study 1 - AST Mean CFB” value [7] was 3.0 IU/L. For the same compound, the “Study 1 - AST Mean percentage CFB” value [7] was 23.1%, the “Study 1 - AST Mean CFB” value [8] was 5.0 IU/L and the “Study 1 - AST Mean percentage CFB” value [8] was 37.6%. The “Study 1 - AST Mean CFB” value (continued 100 mg q.d., week 1) was 3.0 IU/L, the “Study 1 - AST Mean percentage CFB” value (continued 100 mg q.d., week 1) was 13.5% and the “Study 1 - AST Mean CFB” value (continued 100 mg q.d., week 2) was 1.0 IU/L. The “Study 1 - AST Mean percentage CFB” value (continued 100 mg q.d., week 2) was 9.4%, the “Study 1 - AST Mean CFB” value (continued 100 mg q.d., week 4) was 1.6 IU/L and the “Study 1 - AST Mean percentage CFB” value (continued 100 mg q.d., week 4) was 11.2%. For the same compound, the “Study 1 - AST Mean CFB” value (continued 100 mg q.d., week 8) was 2.8 IU/L, the “Study 1 - AST Mean percentage CFB” value (continued 100 mg q.d., week 8) was 17.1% and the “Study 1 - AST Mean CFB” value (continued 100 mg q.d., week 12) was 2.4 IU/L. The “Study 1 - AST Mean percentage CFB” value (continued 100 mg q.d., week 12) was 15.7%, the “Study 1 - AST Mean CFB” value (continued 100 mg q.d., week 16) was 1.5 IU/L and the “Study 1 - AST Mean percentage CFB” value (continued 100 mg q.d., week 16) was 11.5%. For the same compound, the “Study 1 - AST Mean CFB” value (continued 100 mg q.d., week 20) was 2.6 IU/L, the “Study 1 - AST Mean percentage CFB” value (continued 100 mg q.d., week 20) was 19.2% and the “Study 1 - AST Mean CFB” value (continued 100 mg q.d., week 24) was 4.4 IU/L. The “Study 1 - AST Mean percentage CFB” value (continued 100 mg q.d., week 24) was 28.6%, the “Study 1 - AST Mean CFB” value (continued 200 mg q.d., week 1) was 3.1 IU/L and the “Study 1 - AST Mean percentage CFB” value (continued 200 mg q.d., week 1) was 16.1%. For the same compound, the “Study 1 - AST Mean CFB” value (continued 200 mg q.d., week 2) was 1.9 IU/L, the “Study 1 - AST Mean percentage CFB” value (continued 200 mg q.d., week 2) was 12.8% and the “Study 1 - AST Mean CFB” value (continued 200 mg q.d., week 4) was 2.7 IU/L. The “Study 1 - AST Mean percentage CFB” value (continued 200 mg q.d., week 4) was 18.7%, the “Study 1 - AST Mean CFB” value (continued 200 mg q.d., week 8) was 4.5 IU/L and the “Study 1 - AST Mean percentage CFB” value (continued 200 mg q.d., week 8) was 27.2%. For the same compound, the “Study 1 - AST Mean CFB” value (continued 200 mg q.d., week 12) was 4.8 IU/L, the “Study 1 - AST Mean percentage CFB” value (continued 200 mg q.d., week 12) was 28.8% and the “Study 1 - AST Mean CFB” value (continued 200 mg q.d., week 16) was 6.8 IU/L. For the same compound, the “Study 1 - AST Mean percentage CFB” value (continued 200 mg q.d., week 16) was 36.8%, the “Study 1 - AST Mean CFB” value (continued 200 mg q.d., week 20) was 4.0 IU/L and the “Study 1 - AST Mean percentage CFB” value (continued 200 mg q.d., week 20) was 23.3%. For the same compound, the “Study 1 - AST Mean CFB” value (continued 200 mg q.d., week 24) was 5.2 IU/L, the “Study 1 - AST Mean percentage CFB” value (continued 200 mg q.d., week 24) was 30.6% and the “Study 1 - AST Mean CFB” value [9] was −5.0 IU/L. For the same compound, the “Study 1 - AST Mean percentage CFB” value [9] was −12.5%, the “Study 1 - AST Mean CFB” value [10] was −2.3 IU/L and the “Study 1 - AST Mean percentage CFB” value [10] was −0.7%. The “Study 1 - AST Mean CFB” value [11] was −2.9 IU/L, the “Study 1 - AST Mean percentage CFB” value [11] was −2.7% and the “Study 1 - AST Mean CFB” value [12] was −4.1 IU/L. For the same compound, the “Study 1 - AST Mean percentage CFB” value [12] was −7.2%, the “Study 1 - AST Mean CFB” value [13] was −1.0 IU/L and the “Study 1 - AST Mean percentage CFB” value [13] was 4.5%. The “Study 1 - AST Mean CFB” value [14] was −3.3 IU/L, the “Study 1 - AST Mean percentage CFB” value [14] was −2.3% and the “Study 1 - AST Mean CFB” value [15] was −0.6 IU/L. For the same compound, the “Study 1 - AST Mean percentage CFB” value [15] was 8.2%, the “Study 1 - AST Mean CFB” value [16] was 0.6 IU/L and the “Study 1 - AST Mean percentage CFB” value [16] was 14.2%. The “Study 1 - AST Mean CFB” value [17] was 0.3 IU/L, the “Study 1 - AST Mean percentage CFB” value [17] was 5.0% and the “Study 1 - AST Mean CFB” value [18] was 0.0 IU/L. For the same compound, the “Study 1 - AST Mean percentage CFB” value [18] was 3.4%, the “Study 1 - AST Mean CFB” value [19] was −0.5 IU/L and the “Study 1 - AST Mean percentage CFB” value [19] was 3.6%. For the same compound, the “Study 1 - AST Mean CFB” value [20] was −0.4 IU/L, the “Study 1 - AST Mean percentage CFB” value [20] was 3.0% and the “Study 1 - AST Mean CFB” value [21] was 0.1 IU/L. For the same compound, the “Study 1 - AST Mean percentage CFB” value [21] was 4.2%, the “Study 1 - AST Mean CFB” value [22] was −0.9 IU/L and the “Study 1 - AST Mean percentage CFB” value [22] was −0.2%. For the same compound, the “Study 1 - AST Mean CFB” value [23] was 0.4 IU/L, the “Study 1 - AST Mean percentage CFB” value [23] was 4.9% and the “Study 1 - AST Mean CFB” value [24] was −1.7 IU/L. The “Study 1 - AST Mean percentage CFB” value [24] was −2.5%, the “Study 1 - AST Mean CFB” value [25] was 2.1 IU/L and the “Study 1 - AST Mean percentage CFB” value [25] was 14.9%. The “Study 1 - AST Mean CFB” value [26] was −0.1 IU/L, the “Study 1 - AST Mean percentage CFB” value [26] was 1.9% and the “Study 1 - AST Mean CFB” value [27] was 3.5 IU/L. The “Study 1 - AST Mean percentage CFB” value [27] was 19.7%, the “Study 1 - AST Mean CFB” value [28] was 1.3 IU/L and the “Study 1 - AST Mean percentage CFB” value [28] was 1.0%. The “Study 1 - AST Mean CFB” value [29] was 1.2 IU/L, the “Study 1 - AST Mean percentage CFB” value [29] was 9.8% and the “Study 1 - AST Mean CFB” value [30] was 3.2 IU/L. The “Study 1 - AST Mean percentage CFB” value [30] was 23.1%.

Reference: US20180200257A1, “METHODS FOR THE TREATMENT OF INFLAMMATORY DISORDERS” (Galapagos NV, priority 2015, published 2018)
